Experimental data reported in EP3046573B1, “AMYLIN ANALOGUES” (Zealand Pharma A/S, priority 2013, dated 2015).
Like-named read-outs stand apart in the source and are kept apart here. Numbered stars: 1 amine (or outer) side, 2 acyl side, 3 side chain; on linkers, the order of the positions; unused ones are H or OH. Bridge positions count the residues as written; N and C are the ends. Square brackets hold non-standard residues; d marks the D form. Peptide text beside a SMILES is read from it. * marks the point of attachment. C20 diacid = O=C(O)CCCCCCCCCCCCCCCCCCC(=O)*; γGlu = O=C(O)[C@H](CCC(=O)[*:2])N[*:1]; NMeI = CC[C@H](C)[C@H](NC)C(=O)O; hArg = N=C(N)NCCCC[C@H](N)C(=O)O; Sar = CNCC(=O)O

How the values were obtained:
[1] = Solubility assessment (turbidity absorbance at 325 nm); type: physicochemical; conditions: stock 2 mg/ml diluted 1:1, ambient temperature (typically 25°C), n=1; for Solubility, Acetate buffer pH 4: 100 mM acetate buffer pH 4.0; for Solubility, Acetate buffer pH 5: 100 mM acetate buffer pH 5.0; for Solubility, Histidine buffer pH 6: 100 mM histidine buffer pH 6.0; for Solubility, Histidine buffer pH 7: 100 mM histidine buffer pH 7.0; for Solubility, Phosphate buffer pH 6: 100 mM phosphate buffer pH 6.0; for Solubility, Phosphate buffer pH 7: 100 mM phosphate buffer pH 7.0; for Solubility, Phosphate buffer pH 7.5: 100 mM phosphate buffer pH7.5
Procedure: A stock solution of the test peptide (2 mg/ml; determined from the weighed amount of peptide) in demineralized water adjusted to pH 2.5 with HCI was prepared, and aliquots were diluted 1:1 in 100 mM acetate buffer (pH 4.0 and pH 5.0), 100 mM histidine buffer (pH 6.0 and pH 7.0) and 100 mM phosphate buffer (pH 6.0, pH 7.0 and pH7.5), respectively, and loaded in a standard flat-bottom, non-sterile 96-well UV Microplate. The absorbance of samples (single samples, n=1) at 280 and 325 nm was measured in an absorbance-based plate reader, which was preheated to ambient temperature (typically 25°C). The turbidity absorbance criterion for a peptide solubility of ≥ 1 mg/ml was an absorbance at 325 nm of ≤ 0.02 absorbance units (which is 5 to 6 times the standard deviation of 8 buffer samples in a plate). Solubility data for peptides of the invention, pramlintide, and for a comparison pramlintide derivative denoted NN96 (see Example 5 below for details) are shown in Table 1, below. Table 1. Solubility data for compounds of the invention.

[2] = molecular target: T1, human calcitonin receptor (hCTR2) (Homo sapiens, UniProt P30988); assay: hCTR2 assay: induction of cAMP (AlphaScreen cAMP Assay kit) in COS7 cells expressing hCTR2; type: cell-based
T1 construct: expressed in transfected cells
T1 sequence (P30988 25-474): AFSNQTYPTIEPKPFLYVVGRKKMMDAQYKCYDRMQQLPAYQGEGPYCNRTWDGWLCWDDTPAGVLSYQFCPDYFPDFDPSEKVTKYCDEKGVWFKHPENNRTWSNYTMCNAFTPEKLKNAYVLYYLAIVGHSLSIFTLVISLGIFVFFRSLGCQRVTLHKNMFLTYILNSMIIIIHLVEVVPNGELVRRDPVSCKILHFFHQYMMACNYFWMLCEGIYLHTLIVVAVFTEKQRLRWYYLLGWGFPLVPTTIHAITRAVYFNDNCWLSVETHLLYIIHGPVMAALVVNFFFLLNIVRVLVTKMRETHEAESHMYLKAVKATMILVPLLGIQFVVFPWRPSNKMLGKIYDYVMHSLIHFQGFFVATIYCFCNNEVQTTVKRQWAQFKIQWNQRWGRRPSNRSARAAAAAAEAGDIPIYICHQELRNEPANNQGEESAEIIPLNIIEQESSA
How it was run: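 COS7 stable hCTR2 clone (RAMP-free); peptide dose-response 15 min 37° C in Tyrode pH 7.4 + 100 µM IBMX + 0.1% casein; lysis 10 min RT; AlphaScreen cAMP; 4PL fit.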

EC50 ([2]; cAMP induction in COS7 cells expressing hCTR2, average of a minimum of 3 determinations, read-out: hCTR2 EC50)	SMILES	Solubility, Acetate buffer pH 4 [1]	Solubility, Acetate buffer pH 5 [1]	Solubility, Histidine buffer pH 6 [1]	Solubility, Histidine buffer pH 7 [1]	Solubility, Phosphate buffer pH 6 [1]	Solubility, Phosphate buffer pH 7 [1]	Solubility, Phosphate buffer pH 7.5 [1]	EC50 [2]
1.3 nM	CC[C@H](C)[C@@H](C(=O)N[C@@H](CC(C)C)C(=O)N[C@@H](CO)C(=O)N[C@@H](CO)C(=O)N[C@H](C(=O)N[C@@H](CC(N)=O)C(=O)N[C@H](C(=O)NCC(=O)N[C@@H](CO)C(=O)N[C@@H](Cc1c[nH]cn1)C(=O)N[C@H](C(=O)N[C@@H](Cc1ccc(O)cc1)C(N)=O)[C@@H](C)O)C(C)C)[C@@H](C)O)N(C)C(=O)CN(C)C(=O)[C@H](Cc1ccccc1)NC(=O)[C@H](CC(N)=O)NC(=O)[C@H](CC(N)=O)NC(=O)[C@H](CO)NC(=O)[C@H](CO)NC(=O)[C@H](Cc1c[nH]cn1)NC(=O)[C@H](Cc1c[nH]cn1)NC(=O)[C@H](CC(C)C)NC(=O)[C@H](Cc1ccccc1)NC(=O)[C@H](CCC(=O)O)NC(=O)[C@H](C)NC(=O)[C@H](CC(C)C)NC(=O)[C@H](CCCNC(=N)N)NC(=O)[C@H](CCC(N)=O)NC(=O)[C@@H](NC(=O)[C@H](C)NC(=O)[C@@H]1CSSC[C@H](NC(=O)[C@H](CCCCN)NC(=O)CC[C@H](NC(=O)CCCCCCCCCCCCCCCCCCC(=O)O)C(=O)O)C(=O)N[C@@H](CC(N)=O)C(=O)N[C@@H]([C@@H](C)O)C(=O)N[C@@H](C)C(=O)N[C@@H]([C@@H](C)O)C(=O)N1)[C@@H](C)O [Compound 4, [19CD]-isoGlu-KC()NTATC()ATQRLAEFLHHSSNNF-Gly(Me)-Ile(Me)-LSSTNVGSHTY-NH2] ({C20 diacid-γGlu}-KCNTATCATQRLAEFLHHSSNNF[Sar][NMeI]LSSTNVGSHTY-NH2; disulfide 2-7)	II (II indicates solubility ≤ 1 mg/ml)	SS (SS indicates solubility ≥ 1mg/ml)	II (II indicates solubility ≤ 1 mg/ml)	II (II indicates solubility ≤ 1 mg/ml)	II (II indicates solubility ≤ 1 mg/ml)	II (II indicates solubility ≤ 1 mg/ml)	II (II indicates solubility ≤ 1 mg/ml)	
	CC[C@H](C)[C@@H](C(=O)N[C@@H](CC(C)C)C(=O)N[C@@H](CO)C(=O)N[C@@H](CO)C(=O)N[C@H](C(=O)N[C@@H](CC(N)=O)C(=O)N[C@H](C(=O)NCC(=O)N[C@@H](CO)C(=O)N[C@@H](CC(N)=O)C(=O)N[C@H](C(=O)N1CCC[C@H]1C(N)=O)[C@@H](C)O)C(C)C)[C@@H](C)O)N(C)C(=O)[C@H](C)NC(=O)CN(C)C(=O)[C@H](Cc1ccccc1)NC(=O)[C@H](CC(N)=O)NC(=O)[C@H](CC(N)=O)NC(=O)[C@H](CO)NC(=O)[C@H](CO)NC(=O)[C@H](Cc1c[nH]cn1)NC(=O)[C@H](Cc1c[nH]cn1)NC(=O)[C@H](CC(C)C)NC(=O)[C@H](Cc1ccccc1)NC(=O)[C@H](CCC(=O)O)NC(=O)[C@H](C)NC(=O)[C@H](CC(C)C)NC(=O)[C@H](CCCNC(=N)N)NC(=O)[C@H](CCC(N)=O)NC(=O)[C@@H](NC(=O)[C@H](C)NC(=O)[C@@H]1CSSC[C@H](NC(=O)[C@H](C)NC(=O)CC[C@H](NC(=O)CCCCCCCCCCCCCCCCCCC(=O)O)C(=O)O)C(=O)N[C@@H](CC(N)=O)C(=O)N[C@@H]([C@@H](C)O)C(=O)N[C@@H](C)C(=O)N[C@@H]([C@@H](C)O)C(=O)N1)[C@@H](C)O [Compound 5, [19CD]-isoGlu-AC()NTATC()ATQRLAEFLHHSSNNF-Gly(Me)-A-Ile(Me)-LSSTNVGSNTP-NH2] ({C20 diacid-γGlu}-ACNTATCATQRLAEFLHHSSNNF[Sar]A[NMeI]LSSTNVGSNTP-NH2; disulfide 2-7)	SS (SS indicates solubility ≥ 1mg/ml)	SS (SS indicates solubility ≥ 1mg/ml)	SS (SS indicates solubility ≥ 1mg/ml)	SS (SS indicates solubility ≥ 1mg/ml)	SS (SS indicates solubility ≥ 1mg/ml)	SS (SS indicates solubility ≥ 1mg/ml)	SS (SS indicates solubility ≥ 1mg/ml)	0.75 nM
	CC[C@H](C)[C@@H](C(=O)N[C@@H](CC(C)C)C(=O)N[C@@H](CO)C(=O)N[C@@H](CO)C(=O)N[C@H](C(=O)N[C@@H](CC(N)=O)C(=O)N[C@H](C(=O)NCC(=O)N[C@@H](CO)C(=O)N[C@@H](CC(N)=O)C(=O)N[C@H](C(=O)N1CCC[C@H]1C(N)=O)[C@@H](C)O)C(C)C)[C@@H](C)O)N(C)C(=O)CN(C)C(=O)[C@H](Cc1ccccc1)NC(=O)[C@H](CC(N)=O)NC(=O)[C@@H](CC(N)=O)NC(=O)[C@H](CO)NC(=O)[C@H](CO)NC(=O)[C@H](Cc1c[nH]cn1)NC(=O)[C@H](Cc1c[nH]cn1)NC(=O)[C@H](CC(C)C)NC(=O)[C@H](Cc1ccccc1)NC(=O)[C@H](CCC(=O)O)NC(=O)[C@H](C)NC(=O)[C@H](CC(C)C)NC(=O)[C@H](CCCNC(=N)N)NC(=O)[C@H](CCC(N)=O)NC(=O)[C@@H](NC(=O)[C@H](C)NC(=O)[C@@H]1CSSC[C@H](NC(=O)[C@H](CCCNC(=N)N)NC(=O)CC[C@H](NC(=O)CCCCCCCCCCCCCCCCCCC(=O)O)C(=O)O)C(=O)N[C@@H](CC(N)=O)C(=O)N[C@@H]([C@@H](C)O)C(=O)N[C@@H](C)C(=O)N[C@@H]([C@@H](C)O)C(=O)N1)[C@@H](C)O [Compound 35, [19CD]-isoGlu-RC()NTATC()ATQRLAEFLHHSS-DAsn-NF-Gly(Me)-Ile(Me)-LSSTNVGSNTP-NH2] ({C20 diacid-γGlu}-RCNTATCATQRLAEFLHHSS[dN]NF[Sar][NMeI]LSSTNVGSNTP-NH2; disulfide 2-7)								0.16 nM
	CC[C@H](C)[C@@H](C(=O)N[C@@H](CC(C)C)C(=O)N[C@@H](CO)C(=O)N[C@@H](CO)C(=O)N[C@H](C(=O)N[C@@H](CC(N)=O)C(=O)N[C@H](C(=O)NCC(=O)N[C@@H](CO)C(=O)N[C@@H](CC(N)=O)C(=O)N[C@H](C(=O)N1CCC[C@H]1C(N)=O)[C@@H](C)O)C(C)C)[C@@H](C)O)N(C)C(=O)[C@H](C)NC(=O)CN(C)C(=O)[C@H](Cc1ccccc1)NC(=O)[C@H](CC(N)=O)NC(=O)[C@H](CC(N)=O)NC(=O)[C@H](CO)NC(=O)[C@H](CO)NC(=O)[C@H](Cc1c[nH]cn1)NC(=O)[C@H](Cc1c[nH]cn1)NC(=O)[C@H](CC(C)C)NC(=O)[C@H](Cc1ccccc1)NC(=O)[C@H](CCC(=O)O)NC(=O)[C@H](C)NC(=O)[C@H](CC(C)C)NC(=O)[C@H](CCCNC(=N)N)NC(=O)[C@H](CCC(N)=O)NC(=O)[C@@H](NC(=O)[C@H](C)NC(=O)[C@@H]1CSSC[C@H](NC(=O)[C@H](CCCCNC(=N)N)NC(=O)CC[C@H](NC(=O)CCCCCCCCCCCCCCCCCCC(=O)O)C(=O)O)C(=O)N[C@@H](CC(N)=O)C(=O)N[C@@H]([C@@H](C)O)C(=O)N[C@@H](C)C(=O)N[C@@H]([C@@H](C)O)C(=O)N1)[C@@H](C)O [Compound 43, [19CD]-isoGlu-HarC()NTATC()ATQRLAEFLHHSSNNF-Gly(Me)-A-Ile(Me)-LSSTNVGSNTP-NH2] ({C20 diacid-γGlu}-[hArg]CNTATCATQRLAEFLHHSSNNF[Sar]A[NMeI]LSSTNVGSNTP-NH2; disulfide 2-7)								0.1 nM
